Laboratory results published in the supplement of paper PMC13380429.
± gives the standard deviation of the averaged measurements.

Columns and labels:
Conditions in all cases: 72 h
Caco-2 [1] = test: cell viability relative to DMSO; higher = less toxic
Calu-3 [2] = test: as above
HepG2 [3] = test: as above
U2OS [4] = test: as above
Vero E6 [5] = test: as above
Caco-2 [6] = test: relative viability EC50 (midpoint between 100% and the lowest measured viability); higher = less toxic
Calu-3 [7] = test: as above
HepG2 [8] = test: as above
U2OS [9] = test: as above
Vero E6 [10] = test: as above
Caco-2 [11] = test: drug sensitivity score (DSS) for viability; higher = more toxic; extreme values may be limits of the assay
Calu-3 [12] = test: as above
HepG2 [13] = test: as above
U2OS [14] = test: as above
Vero E6 [15] = test: as above

Compound	cell viability (Caco-2 [1]; 1 nM) [%]	cell viability (Caco-2 [1]; 10 nM) [%]	cell viability (Caco-2 [1]; 100 nM) [%]	cell viability (Caco-2 [1]; 1000 nM) [%]	cell viability (Caco-2 [1]; 10000 nM) [%]	cell viability (Calu-3 [2]; 1 nM) [%]	cell viability (Calu-3 [2]; 10 nM) [%]	cell viability (Calu-3 [2]; 100 nM) [%]	cell viability (Calu-3 [2]; 1000 nM) [%]	cell viability (Calu-3 [2]; 10000 nM) [%]	cell viability (HepG2 [3]; 1 nM) [%]	cell viability (HepG2 [3]; 10 nM) [%]	cell viability (HepG2 [3]; 100 nM) [%]	cell viability (HepG2 [3]; 1000 nM) [%]	cell viability (HepG2 [3]; 10000 nM) [%]	cell viability (U2OS [4]; 1 nM) [%]	cell viability (U2OS [4]; 10 nM) [%]	cell viability (U2OS [4]; 100 nM) [%]	cell viability (U2OS [4]; 1000 nM) [%]	cell viability (U2OS [4]; 10000 nM) [%]	cell viability (Vero E6 [5]; 1 nM) [%]	cell viability (Vero E6 [5]; 10 nM) [%]	cell viability (Vero E6 [5]; 100 nM) [%]	cell viability (Vero E6 [5]; 1000 nM) [%]	cell viability (Vero E6 [5]; 10000 nM) [%]	relative viability EC50 (Caco-2 [6]) [µM]	relative viability EC50 (Calu-3 [7]) [µM]	relative viability EC50 (HepG2 [8]) [µM]	relative viability EC50 (U2OS [9]) [µM]	relative viability EC50 (Vero E6 [10]) [µM]	drug sensitivity score (Caco-2 [11])	drug sensitivity score (Calu-3 [12])	drug sensitivity score (HepG2 [13])	drug sensitivity score (U2OS [14])	drug sensitivity score (Vero E6 [15])
CN(CCc1ccc(Cl)c(Cl)c1)CCN1CCCC1 [BD-1008]	101	96.7	95.5	93.8	94.2	95.8	98.5	94.6	96.9	101	91.5	107	104	117	106	97.4	96.5	97	93.2	93.3	100	96.2	94.2	95	106	> 10	> 10	> 10	> 10	> 10	0	0	0	0	0
O=C(O)c1cc2ccccc2s1 [BL-5583]	97.7	107	102	102	100	98	106	106	98.7	141	112	109	97.4	98.8	110	103	105	100	100	98	102	95.7	97.5	101	93	> 10	> 10	> 10	> 10	> 10	0	0	0	0	0
CNC(=O)c1ccc2c(c1)S(=O)(=O)c1ccccc1C2=O [BW-616U]	96.6	108	111	92.4	99.4	115	104	102	100	96.7	109	106	92.7	110	104	99.1	95	100	99.4	98.9	95.2	95.9	98.1	109	106	> 10	> 10	> 10	> 10	> 10	0	0	0	0	0
CCCCCn1cc(C(=O)NC23CC4CC(CC(C4)C2)C3)c(=O)c2cc(-c3ccccc3)ccc21 [COR-170]	90.9	103	100	100	98.3	105	89.2	104	98.2	97	103	93.6	91	105	92.1	96.2	99.9	98.3	94.7	99.9	100	97.7	103	106	94.8	> 10	> 10	> 10	> 10	> 10	0	0	0	0	0
NC(=O)c1ccc(-c2nc(-c3ccc4c(c3)OCCO4)c(-c3ccccn3)[nH]2)cc1 [D-4476]	93	95.1	92.4	92.8	98.6	84.4	101	96.1	108	98.8	105	103	96.3	96	105	96.1	97.9	96.7	99.5	91.9	102	93.4	100	106	106	> 10	> 10	> 10	> 10	> 10	0	0	0	0	0
CN1CCN(C(=O)O[C@H]2c3nccnc3C(=O)N2c2ccc(Cl)cn2)CC1 [ESZOPICLONE]	93.8	98.3	94.3	98.6	100	109	106	91.2	104	99.6	97.2	95.2	92.8	102	101	98.3	87.6	99.5	98.3	96.6	97.3	101	93.6	97.2	111	> 10	> 10	> 10	> 10	> 10	0	0	0	0	0
NC(=O)c1cccc(-c2cc(Nc3ccc(OC(F)(F)F)cc3)ncn2)c1 [GNF-2]	102	102	104	87.1	83.7	104	103	97.9	90.3	86.6	108	99.6	93.4	96.4	77.3	103	99.2	99.1	102	103	104	99	94.6	106	102	> 10	> 10	> 10	> 10	> 10	1.3	0.5	1.3	0	0
O=S(=O)(Cc1ccccc1)Nc1ccc(-c2ccc3c(cnn3-c3ccc(F)cc3)c2)c(C(F)(F)F)c1 [GSK9027]	90.8	98.6	99.7	97.7	85.5	103	105	97.6	92.2	97.1	96	94.4	95.3	104	86.3	94.7	93.7	100	95.9	93.7	96	94.2	91.1	95.2	110	> 10	> 10	> 10	> 10	> 10	0.4	0	0.1	0	0
CCOC(=O)C1=C(N)Oc2ccc(Br)cc2C1C(C#N)C(=O)OCC (stereo not given) [HA-14-1]	99 ± 3.9	95.2 ± 4.1	104 ± 4.9	99.7 ± 4.6	99.5 ± 5	95.2 ± 7.3	105 ± 8.6	97 ± 0.99	98.2 ± 4.5	108.6 ± 0.14	100 ± 2.5	97.3 ± 9.6	98.2 ± 4.7	95.7 ± 7.4	96.8 ± 7.7	95	99.9	99	101	110	93	100	90	97.7	99.3	> 10	> 10	> 10	> 10	> 10	0	0	0	0	0
N[C@@H](Cc1ccc(O)cc1)C(=O)NCC(=O)NCC(=O)O [IMREG-1]	98.2	91.6	103	91.3	97.1	102	99.5	101	98.5	108	101	102	92	103	86.8	104	95	97.6	93.5	102	90.7	96.8	92.6	97.9	89.8	> 10	> 10	> 10	> 10	> 10	0	0	0.1	0	0
CC(=O)NCCC(=O)N[C@@H](Cc1c[nH]cn1)C(=O)O [N-acetylcarnosine]	97.3	105	88.7	86.5	112	106	99.2	94.5	101	96.3	98.8	88.3	93.3	96.2	87.9	98	101	101	97.5	94.7	112	92.1	102	108	98.4	> 10	> 10	> 10	> 10	> 10	0	0	0	0	0
O=C(O)c1cc([N+](=O)[O-])ccc1NCCCc1ccccc1 [NPPB]	102	87.7	93.5	95.5	94.5	99.7	105	101	114	96.2	91.7	101	97.5	102	99.9	101	98.3	100	96.4	94.8	94.9	98.3	90.5	94	105	> 10	> 10	> 10	> 10	> 10	0	0	0	0	0
N#Cc1ccc(NCCNCC(=O)N2CCC[C@H]2C#N)nc1 [NVP-DPP728]	96.6	100	97.1	106	104	101	92.1	96.5	104	110	112	98.6	102	97.3	106	96.2	98.3	101	102	99.4	97.5	97.8	90.3	91.6	104	> 10	> 10	> 10	> 10	> 10	0	0	0	0	0
CCCCCCCCCCCCCCCC(=O)C(F)(F)F [PACOCF3]	101	98.6	104	92.3	96.8	99.6	93.5	91.2	83.2	102	99.6	108	102	104	105	107	103	106	97.2	102	101	101	96.6	102	101	> 10	> 10	> 10	> 10	> 10	0	0	0	0	0
Oc1ccc(-c2c(-c3ccccc3)nn3c(C(F)(F)F)cc(C(F)(F)F)nc23)cc1 [PHTPP]	104	100	99.1	102	95.9	98.5	94.6	97.4	91.3	113	104	95.5	83.4	103	88.7	99.5	96.5	102	99.2	100	105	109	95.8	105	96.5	> 10	> 10	> 10	> 10	> 10	0	0	0	0	0
